Test results published in the supplement of paper PMC10307832.

What follows are cell lines tested with Cn1nnc2c(C(N)=O)ncn2c1=O [Temozolomide] (assay: relative viability (nuclei count vs DMSO), 5 days (fraction); higher = more cells survive). Settings: 0.2 µM.
Summary of the method: (§1)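 Viability here means nuclei in treated wells divided by nuclei in vehicle wells, reported as the median across plates. Only plates with control CV below 25% and at least one doubling passed. Lung cancer cell lines in 1536-well plates were exposed to five √10-spaced library-drug doses for 5 days and counted from 4× Hoechst images in MetaXpress.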

| Cell Line | relative viability |
| --- | --- |
| NCI-H3122 | 1.02 |
| PC-3 [JPC-3] | 0.954 |
| PC-14 | 1.07 |
| RERF-LC-KJ | 0.982 |
| SK-LU-1 | 1.09 |
| SK-MES-1 | 1.13 |
| SW 1573 | 0.998 |
| UMC-11 | 0.994 |

Same assay, conditions: 0.6325 µM

| Cell Line | relative viability |
| --- | --- |
| NCI-H3122 | 1.03 |
| PC-3 [JPC-3] | 1.08 |
| PC-14 | 1.03 |
| RERF-LC-KJ | 1 |
| SK-LU-1 | 1.03 |
| SK-MES-1 | 1.02 |
| SW 1573 | 0.992 |
| UMC-11 | 1.06 |

Same assay, conditions: 2 µM

| Cell Line | relative viability |
| --- | --- |
| NCI-H3122 | 1.06 |
| PC-3 [JPC-3] | 1.09 |
| PC-14 | 0.994 |
| RERF-LC-KJ | 1.04 |
| SK-LU-1 | 0.899 |
| SK-MES-1 | 1.06 |
| SW 1573 | 1.07 |
| UMC-11 | 1.05 |

Same assay, conditions: 6.325 µM

| Cell Line | relative viability |
| --- | --- |
| NCI-H3122 | 0.945 |
| PC-3 [JPC-3] | 1.06 |
| PC-14 | 0.944 |
| RERF-LC-KJ | 0.978 |
| SK-LU-1 | 0.554 |
| SK-MES-1 | 1.05 |
| SW 1573 | 0.948 |
| UMC-11 | 0.858 |

Same assay, conditions: 20 µM

| Cell Line | relative viability |
| --- | --- |
| NCI-H3122 | 0.97 |
| PC-3 [JPC-3] | 0.451 |
| PC-14 | 0.529 |
| RERF-LC-KJ | 1.01 |
| SK-LU-1 | 0.467 |
| SK-MES-1 | 0.889 |
| SW 1573 | 0.971 |
| UMC-11 | 0.677 |

The cell lines below were run with C[C@@H](C(=O)N[C@@H](C1CCCCC1)C(=O)N2CCC[C@H]2C(=O)N[C@@H]3[C@@H](CC4=CC=CC=C34)OCC#CC#CCO[C@@H]5CC6=CC=CC=C6[C@@H]5NC(=O)[C@@H]7CCCN7C(=O)[C@H](C8CCCCC8)NC(=O)[C@H](C)NC)NC [AZD5582] in the same assay as above. Settings: 0.001581 µM.
Summary of the method: as §1

| Cell Line | relative viability |
| --- | --- |
| NCI-H3122 | 0.938 |
| PC-3 [JPC-3] | 0.885 |
| PC-14 | 0.859 |
| RERF-LC-KJ | 0.715 |
| SK-LU-1 | 0.888 |
| SK-MES-1 | 0.943 |
| SW 1573 | 0.939 |
| UMC-11 | 0.887 |

Same assay, conditions: 0.005 µM

| Cell Line | relative viability |
| --- | --- |
| NCI-H3122 | 1.02 |
| PC-3 [JPC-3] | 0.898 |
| PC-14 | 1.03 |
| RERF-LC-KJ | 0.668 |
| SK-LU-1 | 0.777 |
| SK-MES-1 | 1.15 |
| SW 1573 | 1.04 |
| UMC-11 | 1.01 |

Same assay, conditions: 0.01581 µM

| Cell Line | relative viability |
| --- | --- |
| NCI-H3122 | 1 |
| PC-3 [JPC-3] | 0.9 |
| PC-14 | 0.926 |
| RERF-LC-KJ | 0.912 |
| SK-LU-1 | 0.939 |
| SK-MES-1 | 0.972 |
| SW 1573 | 1.03 |
| UMC-11 | 0.96 |

Same assay, conditions: 0.05 µM

| Cell Line | relative viability |
| --- | --- |
| NCI-H3122 | 0.265 |
| PC-3 [JPC-3] | 0.531 |
| PC-14 | 0.932 |
| RERF-LC-KJ | 0.802 |
| SK-LU-1 | 0.47 |
| SK-MES-1 | 1.09 |
| SW 1573 | 1.13 |
| UMC-11 | 1.03 |

The cell lines below were run with C[C@@H](C(=O)N[C@@H](C1CCCCC1)C(=O)N2CCC[C@H]2C(=O)N[C@@H]3[C@@H](CC4=CC=CC=C34)OCC#CC#CCO[C@@H]5CC6=CC=CC=C6[C@@H]5NC(=O)[C@@H]7CCCN7C(=O)[C@H](C8CCCCC8)NC(=O)[C@H](C)NC)NC [AZD5582] + CS(=O)(=O)N1CCN(Cc2cc3nc(-c4cccc5[nH]ncc45)nc(N4CCOCC4)c3s2)CC1 [Pictilisib] (partner 1 µM) (assay: relative viability (nuclei count vs DMSO), 5 days (fraction); higher = more cells survive). Settings: first compound 0.001581 µM.
Summary of the method: (§2)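 Lung cancer cell lines in 1536-well plates were dosed by pin tool the day after seeding, either with one drug alone or with a fixed anchor-drug dose plus five library-drug doses (not always all listed) in √10 steps. After 5 days, cells were fixed and their nuclei stained in one step (final 0.05% Triton X-100, 1% formaldehyde, 1 ug/ml Hoechst), then counted on 4× images. Relative viability is the nuclei count in treated wells divided by that in vehicle wells. Values are medians of duplicate plates.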

| Cell Line | relative viability |
| --- | --- |
| NCI-H3122 | 0.626 |
| PC-3 [JPC-3] | 0.664 |
| PC-14 | 0.501 |
| RERF-LC-KJ | 0.471 |
| SK-LU-1 | 0.422 |
| SK-MES-1 | 0.391 |
| SW 1573 | 0.487 |
| UMC-11 | 0.722 |

Same assay, conditions: first compound 0.005 µM

| Cell Line | relative viability |
| --- | --- |
| NCI-H3122 | 0.569 |
| PC-3 [JPC-3] | 0.543 |
| PC-14 | 0.549 |
| SK-LU-1 | 0.357 |
| SK-MES-1 | 0.475 |
| SW 1573 | 0.612 |
| UMC-11 | 0.842 |

Same assay, conditions: first compound 0.01581 µM

| Cell Line | relative viability |
| --- | --- |
| NCI-H3122 | 0.548 |
| PC-3 [JPC-3] | 0.607 |
| PC-14 | 0.598 |
| RERF-LC-KJ | 0.541 |
| SK-LU-1 | 0.494 |
| SK-MES-1 | 0.4 |
| SW 1573 | 0.635 |
| UMC-11 | 0.648 |

Same assay, conditions: first compound 0.05 µM

| Cell Line | relative viability |
| --- | --- |
| NCI-H3122 | 0.189 |
| PC-3 [JPC-3] | 0.332 |
| PC-14 | 0.295 |
| RERF-LC-KJ | 0.392 |
| SK-LU-1 | 0.325 |
| SK-MES-1 | 0.433 |
| SW 1573 | 0.674 |
| UMC-11 | 0.666 |

The cell lines below were run with Cn1nnc2c(C(N)=O)ncn2c1=O [Temozolomide] + CS(=O)(=O)CCNCc1ccc(-c2ccc3ncnc(Nc4ccc(OCc5cccc(F)c5)c(Cl)c4)c3c2)o1 [Lapatinib] (partner 2 µM) in the same assay as above. Settings: first compound 0.2 µM.
Summary of the method: as §2

| Cell Line | relative viability |
| --- | --- |
| NCI-H3122 | 1.01 |
| PC-3 [JPC-3] | 0.504 |
| PC-14 | 0.318 |
| RERF-LC-KJ | 0.819 |
| SK-LU-1 | 1.08 |
| SK-MES-1 | 0.478 |
| SW 1573 | 1.13 |
| UMC-11 | 1.09 |

Same assay, conditions: first compound 0.6325 µM

| Cell Line | relative viability |
| --- | --- |
| NCI-H3122 | 1.03 |
| PC-3 [JPC-3] | 0.466 |
| PC-14 | 0.321 |
| RERF-LC-KJ | 0.922 |
| SK-LU-1 | 0.906 |
| SK-MES-1 | 0.466 |
| SW 1573 | 1.17 |
| UMC-11 | 1.06 |

Same assay, conditions: first compound 2 µM

| Cell Line | relative viability |
| --- | --- |
| NCI-H3122 | 1.09 |
| PC-3 [JPC-3] | 0.511 |
| PC-14 | 0.396 |
| RERF-LC-KJ | 0.909 |
| SK-LU-1 | 0.803 |
| SK-MES-1 | 0.463 |
| SW 1573 | 1.04 |
| UMC-11 | 1.09 |

Same assay, conditions: first compound 6.325 µM

| Cell Line | relative viability |
| --- | --- |
| NCI-H3122 | 0.968 |
| PC-3 [JPC-3] | 0.461 |
| PC-14 | 0.343 |
| RERF-LC-KJ | 0.767 |
| SK-LU-1 | 0.377 |
| SK-MES-1 | 0.505 |
| SW 1573 | 0.897 |
| UMC-11 | 0.894 |

Same assay, conditions: first compound 20 µM

| Cell Line | relative viability |
| --- | --- |
| NCI-H3122 | 1.04 |
| PC-3 [JPC-3] | 0.437 |
| PC-14 | 0.297 |
| RERF-LC-KJ | 0.846 |
| SK-LU-1 | 0.407 |
| SK-MES-1 | 0.458 |
| SW 1573 | 1.02 |
| UMC-11 | 0.685 |
